{"source": "paper PMC10710878", "about": "(Journal of receptor and signal transduction research, 2022)", "key": {"α2A-AR": {"molecular_target": "T1, α2A-AR (Rattus norvegicus, UniProt P22909)", "T1 sequence (P22909 1-465)": "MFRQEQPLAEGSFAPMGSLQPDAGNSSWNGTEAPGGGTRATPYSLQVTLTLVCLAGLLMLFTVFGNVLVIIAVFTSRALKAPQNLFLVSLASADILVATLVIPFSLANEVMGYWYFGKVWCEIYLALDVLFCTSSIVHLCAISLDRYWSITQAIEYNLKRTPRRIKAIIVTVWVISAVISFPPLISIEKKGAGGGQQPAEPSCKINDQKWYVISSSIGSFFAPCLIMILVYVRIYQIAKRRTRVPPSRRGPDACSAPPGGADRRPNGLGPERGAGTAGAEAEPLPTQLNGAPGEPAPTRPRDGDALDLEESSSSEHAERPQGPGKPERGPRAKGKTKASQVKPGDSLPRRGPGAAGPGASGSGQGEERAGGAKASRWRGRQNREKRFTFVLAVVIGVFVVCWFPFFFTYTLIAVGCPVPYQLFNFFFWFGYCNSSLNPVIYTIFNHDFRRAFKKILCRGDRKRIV", "format": "cell-based", "conditions": "for pKb (equilibrium dissociation constant, Schild x-intercept): antagonizing EPI-induced reduction of epileptiform burst discharges"}, "pyramidal cells": {"tested_on": "pyramidal cells", "conditions": "modulation of α2A-AR, data not shown"}, "[1]": {"tested_on": "human α2A-AR versus α2B- or α2C-AR", "conditions": "published EC50 for cloned human α2-ARs, ref Table S3; cited from earlier work"}, "human 5-HT1A": {"tested_on": "human 5-HT1A", "conditions": "published pEC50, ref Table S3; cited from earlier work"}}, "note": "Structures can show the parent of a compound that is named as a salt. Where two headings read alike, the source gives them in different places."}
{"smiles": "CN1CCN(c2ccc(Nc3c4ccccc4nc4ccccc34)cc2)CC1", "note": "[JP-1302]", "values": [{"measurement": "pKb (equilibrium dissociation constant, Schild x-intercept)", "setting": "α2A-AR", "value": 5.23}]}
{"smiles": "CCC1(C2=NCCN2)Cc2ccccc2O1", "note": "(centres unmarked) [efaroxan, efaroxan hydrochloride]", "values": [{"measurement": "Kb", "setting": "α2A-AR", "value": 3.72, "unit": "nM"}]}
{"smiles": "CCS(=O)(=O)N1CCC[C@@H]2CN3CCc4cc(OC)ccc4[C@@H]3C[C@@H]21", "note": "[RS-79948]", "values": [{"measurement": "parallel rightward shift of the control EPI concentration-response curve", "setting": "α2A-AR; 3 nM RS-79948", "value": 4, "unit": "fold"}, {"measurement": "parallel rightward shift of the control EPI concentration-response curve", "setting": "α2A-AR; 10 nM RS-79948", "value": 13, "unit": "fold"}, {"measurement": "parallel rightward shift of the control EPI concentration-response curve", "setting": "α2A-AR; 30 nM RS-79948", "value": 34, "unit": "fold"}, {"measurement": "pKb (equilibrium dissociation constant, Schild x-intercept)", "setting": "α2A-AR", "value": "9.00 ± 0.16"}, {"measurement": "Schild regression slope", "setting": "α2A-AR; dose ratios of EPI EC50", "value": "0.95 ± 0.11"}]}
{"smiles": "CNC[C@H](O)c1ccc(O)c(O)c1", "note": "[EPI, epinephrine]", "values": [{"measurement": "hyperpolarization of pyramidal cells", "setting": "pyramidal cells", "value": "does not hyperpolarize pyramidal cells"}]}
{"smiles": "Cc1cccc([C@H](C)c2cnc[nH]2)c1C", "note": "[dexmedetomidine, dexmedetomidine hydrochloride]", "values": [{"measurement": "α2-AR subtype selectivity in words", "setting": "[1]", "value": "no subtype selectivity"}]}
{"smiles": "CC1c2ccccc2CN1CC1=NCCN1", "note": "(centres unmarked) [BRL-44408]", "values": [{"measurement": "pKb (equilibrium dissociation constant, Schild x-intercept)", "setting": "α2A-AR", "value": 7.81}]}
{"smiles": "Brc1c(NC2=NCCN2)ccc2nccnc12", "note": "[UK-14304]", "values": [{"measurement": "lower potency towards 5-HT1A compared with the α2A-AR", "setting": "human 5-HT1A", "value": "1,000 fold"}, {"measurement": "greater potency at α2A-ARs than α2B- or α2C-ARs", "setting": "[1]", "value": 10, "unit": "fold"}]}
{"smiles": "CN1CC[C@]2(CCN3CCc4c(oc5ccccc45)[C@@H]3C2)N(C)C1=O", "note": "[MK-912]", "values": [{"measurement": "pKb (equilibrium dissociation constant, Schild x-intercept)", "setting": "α2A-AR", "value": 8.32}]}
{"smiles": "COc1ccccc1N1CCN(CCN2C(=O)c3ccccc3C(C)(C)C2=O)CC1", "note": "[ARC-239]", "values": [{"measurement": "pKb (equilibrium dissociation constant, Schild x-intercept)", "setting": "α2A-AR", "value": 6.14}]}
{"smiles": "COC1(C2=NCCN2)COc2ccccc2O1", "note": "(centres unmarked) [RX-821002]", "values": [{"measurement": "pKb (equilibrium dissociation constant, Schild x-intercept)", "setting": "α2A-AR", "value": 8.87}]}
{"smiles": "N=C(N)N/N=C/c1c(Cl)cccc1Cl", "note": "[guanabenz, guanabenz acetate]", "values": [{"measurement": "Kb", "setting": "α2A-AR", "value": 39.8, "unit": "nM"}]}
{"smiles": "COc1cccc(OC)c1OCCNCC1COc2ccccc2O1", "note": "(centres unmarked) [WB-4101]", "values": [{"measurement": "pKb (equilibrium dissociation constant, Schild x-intercept)", "setting": "α2A-AR", "value": 7.34}]}
